# Experiments:
# [1] = in vitro; details: for fraction unbound at 24 h, 10 μg/mL: rat, plasma, pH 7.4, Plasma protein binding
# Protocol: Rat plasma (1 mL) from each group was dialyzed against 1 mL of isotonic Sørensen phosphate buffer (pH 7.4) containing 3% dextran (“the buffer”) via a Spectra/Por 2 membrane (molecular weight cutoff: 12,000–14,000 Da; Spectrum Medical Industries, Los Angeles, CA, USA). […] The binding percentage (%) was calculated as follows:(1) Binding %=CP−CB/CP×100
# [2] = in vivo; details: for AUC / clearance / CL renal / half-life / Vd / Cmax / bioavailability / Tmax: rat, in vivo; for clearance: CL; for CL renal: CLR; for half-life: Terminal half-life; for Vd: Vss; for bioavailability: F (absolute oral bioavailability), 20 mg/kg oral vs 10 mg/kg i.v.
# Protocol: All surgical procedures were performed following anesthesia with 100 mg/kg ketamine according to a previously reported method. For the intravenous study, the carotid artery and jugular vein were cannulated for blood sampling and drug administration, respectively. For the oral study, rats were restrained from food overnight but were allowed to drink water ad libitum. Only the carotid artery was cannulated for the blood sampling.
# A heparinized 0.9% NaCl-injectable solution (10 IU/mL) was immediately flushed into the carotid artery after collecting the blood samples to prevent blood clotting.
# The volume of the combined urine was then measured, and two 100 μL aliquot samples were collected. At the same time, the rat abdomen was surgically opened, and the whole gastrointestinal tract was collected in a beaker containing 50 mL methanol and cut into small pieces. After even mixing, 50 µL of the supernatant was collected.
# Pharmacokinetic parameters were estimated using the standard method by non-compartmental analysis (WinNonlin; Pharsight Corporation, Mountain View, CA, USA). AUC values were calculated using the trapezoidal rule–extrapolation method. The peak plasma concentration (Cmax) and time to reach Cmax (Tmax) were measured directly from the plasma concentration–time curves. […] The glomerular filtration rate was measured by calculating the CLCR, assuming that the kidney function was stable during the experimental period.
# [3] = Protocol: Enzyme kinetics in the hepatic and intestinal microsomes were determined according to a previously reported method. Microsomal protein concentrations in the liver and intestine were measured using bicinchoninic acid assay. […] The total volume was adjusted to 1 mL by adding 0.1 M phosphate-buffered solution (pH 7.4) to the system, and the samples were incubated for 15 min in a water-bath shaker at 37 °C at the rate of 50 oscillations per min. The reaction was completed by adding 2 volumes of methanol. Subsequently, two 50 μL aliquots of each reaction mixture were collected.
# [4] = human, oral; cited from earlier work
# [5] = rats, intraportal administration; cited from earlier work
# [6] = various pH buffers (pH 2–10) and gastric juice (pH 3.5), 24 h; cited from earlier work
# [7] = rats (n = 3), 10 mg/kg i.v.; cited from earlier work
# [8] = test system: P-gp; details: cited from earlier work
# [9] = LC rats vs CON rats, 10 mg/kg i.v.
# [10] = LC rats vs CON rats, 20 mg/kg oral
# [11] = LC-ISN rats vs CON rats, 10 mg/kg i.v.
# [12] = LC-ISN rats vs CON rats, 20 mg/kg oral
# [13] = LC-ISN rats vs LC rats, 10 mg/kg i.v.
# [14] = LC-ISN rats vs LC rats, 20 mg/kg oral
# [15] = iv, 10 mg/kg, CON rats, 10 mg/kg i.v. 1 min infusion
# [16] = iv, 10 mg/kg, LC rats, 10 mg/kg i.v. 1 min infusion
# [17] = iv, 10 mg/kg, LC-ISN rats, 10 mg/kg i.v. 1 min infusion
# [18] = iv, 10 mg/kg, CON rats, 10 mg/kg i.v.
# [19] = iv, 10 mg/kg, LC rats, 10 mg/kg i.v.
# [20] = iv, 10 mg/kg, LC-ISN rats, 10 mg/kg i.v.
# [21] = po, 20 mg/kg, CON rats, 20 mg/kg oral
# [22] = po, 20 mg/kg, LC rats, 20 mg/kg oral
# [23] = po, 20 mg/kg, LC-ISN rats, 20 mg/kg oral
# [24] = hepatic microsomes, LC rats vs CON rats
smiles,measurement,setting,value
"CC1CCN(C(=O)CC#N)CC1N(C)c1ncnc2[nH]ccc12 (stereo not drawn) [tofacitinib, 3-(4-methyl-3-(methyl(7H-pyrrolo[2,3-d]pyrimidin-4yl)amino)piperidin-1-yl)-3-oxopropanenitrile]",Decrease in plasma protein binding,[1]; LC rats vs CON rats,28.3%
same,Decrease in plasma protein binding,[1]; LC-ISN rats vs CON rats,21.5%
same,"fraction unbound at 24 h, 10 μg/mL","[1]; CON rat plasma, 10 μg/mL tofacitinib, 37 °C, 24 h",0.749
same,"fraction unbound at 24 h, 10 μg/mL","[1]; LC rat plasma, 10 μg/mL tofacitinib, 37 °C, 24 h",0.82
same,"fraction unbound at 24 h, 10 μg/mL","[1]; LC-ISN rat plasma, 10 μg/mL tofacitinib, 37 °C, 24 h",0.803
same,"fraction unbound at 24 h, 10 μg/mL","[1]; range over CON, LC and LC-ISN rats",0.749 to 0.82
same,Ae0–24 h (excreted in urine as unchanged for 24 h),"[2]; CON rats, 10 mg/kg i.v.",13.9 ± 2.28 % of dose
same,CLNR,"[2]; CON rats, 10 mg/kg i.v.",21.1 ± 4.57 mL/min/kg
same,GI24 h (remained in the gastrointestinal tract at 24 h),"[2]; CON rats, 10 mg/kg i.v.",0.164 ± 0.102 % of dose
same,Ae0–24 h,"[2]; CON rats, 20 mg/kg oral",11.8 ± 4.08 % of dose
same,GI24 h,"[2]; CON rats, 20 mg/kg oral",0.106 ± 0.101 % of dose
same,Greater Ae0–24 h,[2]; [9],189%
same,Increase in AUC,[2]; [9],158%
same,Increase in Vss,[2]; [9],86.0%
same,Longer terminal half-life,[2]; [9],219%
same,Slower CL,[2]; [9],54.4%
same,Slower CLNR,[2]; [9],69.9%
same,Increase in AUC,[2]; [10],429%
same,Increase in Ae0–24 h,[2]; [10],203%
same,Increase in Cmax,[2]; [10],158%
same,Increase in F,[2]; [10],105%
same,Ae0–24 h (excreted in urine as unchanged for 24 h),"[2]; LC rats, 10 mg/kg i.v.",40.2 ± 18.9 % of dose
same,CLNR,"[2]; LC rats, 10 mg/kg i.v.",6.35 ± 1.27 mL/min/kg
same,GI24 h (remained in the gastrointestinal tract at 24 h),"[2]; LC rats, 10 mg/kg i.v.",2.07 ± 2.12 % of dose
same,Ae0–24 h,"[2]; LC rats, 20 mg/kg oral",35.8 ± 16.9 % of dose
same,GI24 h,"[2]; LC rats, 20 mg/kg oral",1.73 ± 2.04 % of dose
same,Greater Ae0–24 h,[2]; [11],117%
same,Increase in terminal half-life,[2]; [11],64.4%
same,Slower CL,[2]; [11],42.7%
same,Slower CLNR,[2]; [11],54.1%
same,Increase in AUC,[2]; [12],223%
same,Increase in Ae0–24 h,[2]; [12],204%
same,Increase in Cmax,[2]; [12],72.2%
same,Increase in F,[2]; [12],92.9%
same,Decrease in AUC,[2]; [13],35.1%
same,Decrease in terminal half-life,[2]; [13],48.5%
same,Decrease in AUC,[2]; [14],38.9%
same,Decrease in Cmax,[2]; [14],33.2%
same,Ae0–24 h (excreted in urine as unchanged for 24 h),"[2]; LC-ISN rats, 10 mg/kg i.v.",30.1 ± 12.3 % of dose
same,CLNR,"[2]; LC-ISN rats, 10 mg/kg i.v.",9.68 ± 2.40 mL/min/kg
same,GI24 h (remained in the gastrointestinal tract at 24 h),"[2]; LC-ISN rats, 10 mg/kg i.v.",0.166 ± 0.135 % of dose
same,Ae0–24 h,"[2]; LC-ISN rats, 20 mg/kg oral",35.9 ± 16.8 % of dose
same,GI24 h,"[2]; LC-ISN rats, 20 mg/kg oral",0.340 ± 0.288 % of dose
same,AUC,[2]; [15],7330 ng·h/mL
same,AUC,[2]; [16],18900 ng·h/mL
same,AUC,[2]; [17],12300 ng·h/mL
same,clearance,[2]; [18],24.1 ± 6.27 mL/min/kg
same,clearance,[2]; [19],11 ± 2.06 mL/min/kg
same,clearance,[2]; [20],13.8 ± 1.73 mL/min/kg
same,CL renal,[2]; [18],3.73 ± 1.09 mL/min/kg
same,CL renal,[2]; [19],4.65 ± 2.74 mL/min/kg
same,CL renal,[2]; [20],4.1 ± 1.64 mL/min/kg
same,half-life,[2]; [15],35.4 ± 19.2 min
same,half-life,[2]; [16],113 ± 43.7 min
same,half-life,[2]; [17],58.2 ± 16.8 min
same,Vd,[2]; [18],0.429 ± 0.253 L/kg
same,Vd,[2]; [19],0.798 ± 0.177 L/kg
same,Vd,[2]; [20],0.8 ± 0.326 L/kg
same,AUC,[2]; [21],6400 ng·h/mL
same,AUC,[2]; [22],33800 ng·h/mL
same,AUC,[2]; [23],20700 ng·h/mL
same,CL renal,[2]; [21],6.98 ± 2.99 mL/min/kg
same,CL renal,[2]; [22],3.62 ± 1.78 mL/min/kg
same,CL renal,[2]; [23],5.71 ± 2.47 mL/min/kg
same,Cmax,[2]; [21],3530 ± 1460 ng/mL
same,Cmax,[2]; [22],9100 ± 1260 ng/mL
same,Cmax,[2]; [23],6080 ± 1990 ng/mL
same,bioavailability,"[2]; po, 20 mg/kg, CON rats",43.6%
same,bioavailability,"[2]; po, 20 mg/kg, LC rats",89.5%
same,bioavailability,"[2]; po, 20 mg/kg, LC-ISN rats",84.1%
same,Tmax,[2]; [21],50 min
same,Tmax,[2]; [22],55.7 min
same,Tmax,[2]; [23],85.7 min
same,GI24 h,"[2]; the three groups of rats, 20 mg/kg oral",less than 1.73 % of the oral dose
same,Km for disappearance of tofacitinib,"[3]; hepatic microsomes, CON, LC and LC-ISN rats",comparable among the three groups of rats
same,Decrease in hepatic CLint,[3]; [24],64.9%
same,Slower Vmax for disappearance of tofacitinib,[3]; [24],63.4%
same,Hepatic CLint recovered to % of CON rats,"[3]; hepatic microsomes, LC-ISN rats vs CON rats",92.2%
same,Intestinal CLint,"[3]; intestinal microsomes, CON, LC and LC-ISN rats",not significantly different among the three groups of rats
same,Fraction excreted by the kidneys in unmetabolized form,[4],30%
same,Hepatic first-pass effect,[5],42.0%
same,Stability,[6],stable
same,Biliary excretion,[7],0.703 % of the unchanged drug dose
same,P-gp substrate,[8],substrate of P-gp
